Laboratory results published in US20240116985A1, “STAPLED PEPTIDES AND METHODS THEREOF” (priority 2020, published 2024).
Like-named read-outs stand apart in the source and are kept apart here.

Biological target: T1, full-length beta-Catenin (Uniprot ID P35222) (Homo sapiens, UniProt P35222)
T1 construct: 10 nM full-length beta-Catenin (Uniprot ID P35222)
T1 sequence (P35222 1-781): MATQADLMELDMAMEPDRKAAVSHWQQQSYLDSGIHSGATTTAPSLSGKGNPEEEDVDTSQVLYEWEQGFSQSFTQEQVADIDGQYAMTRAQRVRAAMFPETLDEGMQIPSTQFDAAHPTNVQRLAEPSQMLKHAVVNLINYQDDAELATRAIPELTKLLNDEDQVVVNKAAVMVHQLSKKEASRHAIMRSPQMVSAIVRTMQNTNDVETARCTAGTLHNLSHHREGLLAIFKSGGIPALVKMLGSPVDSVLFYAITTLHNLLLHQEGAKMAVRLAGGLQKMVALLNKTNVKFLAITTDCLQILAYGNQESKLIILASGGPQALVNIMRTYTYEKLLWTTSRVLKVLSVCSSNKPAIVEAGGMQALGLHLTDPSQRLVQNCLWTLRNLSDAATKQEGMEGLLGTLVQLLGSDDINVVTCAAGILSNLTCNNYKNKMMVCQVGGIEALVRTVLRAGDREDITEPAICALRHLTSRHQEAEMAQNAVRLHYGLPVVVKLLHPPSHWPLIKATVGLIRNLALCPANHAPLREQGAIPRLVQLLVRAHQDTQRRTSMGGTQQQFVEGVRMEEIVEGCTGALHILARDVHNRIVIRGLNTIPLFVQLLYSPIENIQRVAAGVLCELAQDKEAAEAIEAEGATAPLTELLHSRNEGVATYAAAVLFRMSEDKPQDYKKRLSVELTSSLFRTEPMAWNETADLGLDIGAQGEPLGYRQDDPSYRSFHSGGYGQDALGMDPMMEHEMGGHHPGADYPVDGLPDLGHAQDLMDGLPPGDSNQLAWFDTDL
Test: Fluorescence polarization IC50 (beta-catenin / 5FAM-TCF4 10-53 competition)
Assay type: binding
Conditions: fluorescence polarization

Compound: CC(=O)N1CCC[C@]12CC=CCCCC1(CCCC=CCCCOC(=O)N3CC[C@@](C(=O)N[C@@H](Cc4ccccc4Cl)C(=O)N[C@@H](Cc4csc5ccccc45)C(=O)N[C@@H](CCC(N)=O)C(N)=O)(C3)NC(=O)[C@H](CC(N)=O)NC(=O)[C@H](Cc3ccccc3)NC(=O)[C@H](C)NC(=O)[C@H](C)NC(=O)[C@H]([C@@H](C)O)NC(=O)[C@H](CC(N)=O)NC1=O)NC(=O)[C@H](CC(C)(C)C)NC(=O)[C@H](CC(=O)O)NC2=O (stereo partly drawn) [I-1999, Ac-PL3-Asp-Npg-B5-Asn-Thr-Ala-Ala-Phe-Asn-PyrS2-2C1F-BztA-Gln-NH2]
- IC50 (read-out: beta-Catenin FP IC50): 4940 nM

Compound: CC(=O)N1CCC[C@]12CC=CCCCC1(CCCC=CCCCOC(=O)N3CC[C@@](C(=O)N[C@@H](Cc4ccsc4)C(=O)N[C@@H](Cc4csc5ccccc45)C(=O)N[C@@H](Cc4c[nH]c5ccccc45)C(N)=O)(C3)NC(=O)[C@H](CC(N)=O)NC(=O)[C@H](Cc3ccccc3)NC(=O)[C@H](C)NC(=O)[C@H](C)NC(=O)[C@H]([C@@H](C)O)NC(=O)[C@H](CC(N)=O)NC1=O)NC(=O)[C@H](CC(C)(C)C)NC(=O)[C@H](CC(=O)O)NC2=O (stereo partly drawn) [I-2138, Ac-PL3-Asp-Npg-B5-Asn-Thr-Ala-Ala-Phe-Asn-PyrS2-3Thi-BztA-Trp-NH2]
- IC50 (read-out: beta-Catenin FP IC50): 1010 nM

Compound: CC(=O)N1CCC[C@]12CC=CCCCC1(CCCC=CCCCOC(=O)N3CC[C@@](C(=O)N[C@@H](CC4CCCCC4)C(=O)N[C@@H](Cc4csc5ccccc45)C(=O)N[C@@H](CCC(N)=O)C(N)=O)(C3)NC(=O)[C@H](CC(C)C)NC(=O)[C@H](Cc3ccccc3)NC(=O)[C@H](C)NC(=O)[C@H](CCCCNC(C)C)NC(=O)[C@H](CCC(N)=O)NC(=O)[C@H](CC(=O)O)NC1=O)NC(=O)[C@H](CC(C)(C)C)NC(=O)[C@H](CC(N)=O)NC2=O (stereo partly drawn) [I-1651, Ac-PL3-Asn-Npg-B5-Asp-Gln-iPrLys-Ala-Phe-Leu-PyrS2-Cha-BztA-Gln-NH2]
- IC50 (read-out: beta-Catenin FP IC50): 3970 nM

Compound: CC(=O)N1CCC[C@]12CC=CCCCC1(CCCC=CCCCOC(=O)N3CC[C@@](C(=O)N[C@@H](Cc4ccsc4)C(=O)N[C@@H](Cc4csc5ccccc45)C(=O)N[C@@H](Cc4ccccc4)C(N)=O)(C3)NC(=O)[C@H]([C@@H](C)O)NC(=O)[C@H](Cc3ccccc3)NC(=O)[C@H](C)NC(=O)[C@H](C)NC(=O)[C@H]([C@@H](C)O)NC(=O)[C@H](CC(N)=O)NC1=O)NC(=O)[C@H](CC(C)(C)C)NC(=O)[C@H](CC(=O)O)NC2=O (stereo partly drawn) [I-2145, Ac-PL3-Asp-Npg-B5-Asn-Thr-Ala-Ala-Phe-Thr-PyrS2-3Thi-BztA-Phe-NH2]
- IC50 (read-out: beta-Catenin FP IC50): 2070 nM

Compound: CC(=O)N1CCC[C@]12CC=CCCCC1(CCCC=CCCCOC(=O)N3CC[C@@](C(=O)N[C@@H](Cc4ccsc4)C(=O)N[C@@H](Cc4csc5ccccc45)C(=O)N[C@@H](CCC(N)=O)C(N)=O)(C3)NC(=O)[C@H](CC(C)C)NC(=O)[C@H](Cc3ccccc3)NC(=O)[C@H](C)NC(=O)[C@H](C)NC(=O)[C@H](CC(=O)O)NC(=O)[C@H](CC(=O)OCCSSc3ccccn3)NC1=O)NC(=O)[C@H](CC(C)(C)C)NC(=O)[C@H](CC(=O)O)NC2=O (stereo partly drawn) [I-1950, Ac-PL3-Asp-Npg-B5-[EtSSpy]AspE-Asp-Ala-Ala-Phe-Leu-PyrS2-3Thi-BztA-Gln-NH2]
- IC50 (read-out: beta-Catenin FP IC50): 234 nM

Compound: CC(=O)N1CCC[C@]12CC=CCCCC1(CCCC=CCCCOC(=O)N3CC[C@@](C(=O)N[C@@H](Cc4ccsc4)C(=O)N[C@@H](Cc4csc5ccccc45)C(=O)N[C@@H](Cc4c[nH]cn4)C(N)=O)(C3)NC(=O)[C@H](CCC(N)=O)NC(=O)[C@H](Cc3ccccc3)NC(=O)[C@H](C)NC(=O)[C@H](C)NC(=O)[C@H](CC(=O)O)NC(=O)[C@H](CC(=O)O)NC1=O)NC(=O)[C@H](CC(C)(C)C)NC(=O)[C@H](CC(=O)O)NC2=O (stereo partly drawn) [I-1459, Ac-PL3-Asp-Npg-B5-Asp-Asp-Ala-Ala-Phe-Gln-PyrS2-3Thi-BztA-His-NH2]
- IC50 (read-out: beta-Catenin FP IC50): 5 nM

Compound: CCCCCCCC(=O)N1CCC[C@]12CC=CCCCC1(CCCC=CCCCCCC[C@@](C)(C(=O)N[C@@H](Cc3ccccc3Cl)C(=O)N[C@@H](Cc3csc4ccccc34)C(=O)N[C@@H](CCC(N)=O)C(N)=O)NC(=O)[C@H]([C@@H](C)O)NC(=O)[C@H](Cc3ccccc3)NC(=O)[C@H](C)NC(=O)[C@H](C)NC(=O)[C@H](CC(=O)O)NC(=O)[C@H](CC(=O)O)NC1=O)NC(=O)[C@H](CC(C)(C)C)NC(=O)[C@H](CC(=O)O)NC2=O (stereo partly drawn) [I-1254, Oct-PL3-Asp-Npg-B5-Asp-Asp-Ala-Ala-Phe-Thr-S8-2C1F-BztA-Gln-NH2]
- IC50 (read-out: beta-Catenin FP IC50): 530 nM

Compound: CC(=O)N1CCC[C@]12CC=CCCCC1(CCCC=CCCCOC(=O)N3CC[C@@](C(=O)N[C@@H](Cc4cccc(Cl)c4)C(=O)N[C@@H](Cc4csc5ccccc45)C(=O)N[C@@H](CCC(N)=O)C(N)=O)(C3)NC(=O)[C@H](CC(N)=O)NC(=O)[C@H](Cc3ccccc3)NC(=O)[C@H](C)NC(=O)[C@H](C)NC(=O)[C@H]([C@@H](C)O)NC(=O)[C@H](CC(N)=O)NC1=O)NC(=O)[C@H](CC(C)(C)C)NC(=O)[C@H](CC(=O)O)NC2=O (stereo partly drawn) [I-2000, Ac-PL3-Asp-Npg-B5-Asn-Thr-Ala-Ala-Phe-Asn-PyrS2-3C1F-BztA-Gln-NH2]
- IC50 (read-out: beta-Catenin FP IC50): 6560 nM

Compound: CC(=O)N1CCC[C@]12CC=CCCCC1(CCCC=CCCCOC(=O)N3CC[C@@](C(=O)N[C@@H](Cc4ccccc4Cl)C(=O)N[C@@H](Cc4csc5ccccc45)C(=O)N[C@@H](CCC(N)=O)C(N)=O)(C3)NC(=O)[C@H](CC(N)=O)NC(=O)[C@H](Cc3ccccc3)NC(=O)[C@H](C)NC(=O)[C@H](C)NC(=O)[C@H](CN(CC(=O)O)Cc3c(F)c(F)c(F)c(F)c3F)NC(=O)[C@H](CC(=O)O)NC1=O)NC(=O)[C@H](CC(C)(C)C)NC(=O)[C@H](CC(=O)O)NC2=O (stereo partly drawn) [I-1448, Ac-PL3-Asp-Npg-B5-Asp-[Pfbn]GA-Ala-Ala-Phe-Asn-PyrS2-2C1F-BztA-Gln-NH2]
- IC50 (beta-catenin, read-out: FP EC50): 20 nM
- IC50 (read-out: beta-Catenin FP IC50): 20 nM

Compound: CC(=O)N[C@]12CCN(C1)C(=O)OCC=CCCCC1(CCCC=CCCCOC(=O)N3CC[C@@](C(=O)N[C@@H](Cc4ccccc4C(F)(F)F)C(=O)N[C@@H](Cc4csc5ccccc45)C(=O)N[C@@H](CCC(N)=O)C(N)=O)(C3)NC(=O)[C@H](CC(C)C)NC(=O)[C@H](Cc3ccccc3)NC(=O)[C@H](C)NC(=O)[C@H](C)NC(=O)[C@H](Cc3cccc(C(=O)O)c3)NC(=O)[C@H](CC(=O)O)NC1=O)NC(=O)[C@H](CC(C)(C)C)NC(=O)[C@H](CC(=O)O)NC(=O)[C@H](CCC(=O)O)NC2=O (stereo partly drawn) [I-2569, Ac-PyrR-Glu-Asp-Npg-B5-Asp-3COOHF-Ala-Ala-Phe-Leu-PyrS2-2F3MeF-BztA-Gln-NH2]
- IC50 (read-out: beta-Catenin FP IC50): 1950 nM

Compound: CC(=O)N1CCC[C@]12CC=CCCCC1(CCCC=CCCCOC(=O)N3CC[C@@](C(=O)N[C@@H](Cc4ccsc4)C(=O)N[C@@H](Cc4csc5ccccc45)C(=O)N[C@@H](CCC(N)=O)C(N)=O)(C3)NC(=O)[C@H](CCO)NC(=O)[C@H](Cc3cccc(C(=O)O)c3)NC(=O)[C@H](C)NC(=O)[C@H](C)NC(=O)[C@H](Cc3ccc(O)cc3)NC(=O)[C@H](CC(=O)O)NC1=O)NC(=O)[C@H](CC(C)(C)C)NC(=O)[C@H](CC(=O)O)NC2=O (stereo partly drawn) [I-2125, Ac-PL3-Asp-Npg-B5-Asp-Tyr-Ala-Ala-3COOHF-Hse-PyrS2-3Thi-BztA-Gln-NH2]
- IC50 (read-out: beta-Catenin FP IC50): 26 nM

Compound: CC(=O)N1CCC[C@]12CC=CCCCC1(CCCC=CCCCOC(=O)N3CC[C@@](C(=O)N[C@@H](Cc4ccsc4)C(=O)N[C@@H](Cc4csc5ccccc45)C(=O)N[C@@H](CCC(N)=O)C(N)=O)(C3)NC(=O)[C@H](CC(N)=O)NC(=O)[C@H](Cc3ccccc3)NC(=O)[C@H](C)NC(=O)[C@H](C)NC(=O)[C@H](Cc3ccc(O)cc3)NC(=O)[C@H](CC(N)=O)NC1=O)NC(=O)[C@H](CC(C)(C)C)NC(=O)[C@H](CC(=O)O)NC2=O (stereo partly drawn) [I-1569, Ac-PL3-Asp-Npg-B5-Asn-Tyr-Ala-Ala-Phe-Asn-PyrS2-3Thi-BztA-Gln-NH2]
- IC50 (read-out: beta-Catenin FP IC50): 2660 nM

Compound: CC(=O)N1CCC[C@]12CC=CCCCC1(CCCC=CCCCOC(=O)N3CC[C@@](C(=O)N[C@@H](Cc4ccsc4)C(=O)N[C@@H](Cc4csc5ccccc45)C(=O)N[C@@H](CCC(N)=O)C(N)=O)(C3)NC(=O)[C@H](CC(C)C)NC(=O)[C@H](Cc3ccccc3)NC(=O)[C@H](C)NC(=O)[C@H](C)NC(=O)[C@H](CCc3ccc(O)cc3)NC(=O)[C@H](CC(=O)O)NC1=O)NC(=O)[C@H](CC(C)(C)C)NC(=O)[C@H](CC(=O)O)NC2=O (stereo partly drawn) [I-1787, Ac-PL3-Asp-Npg-B5-Asp-hTyr-Ala-Ala-Phe-Leu-PyrS2-3Thi-BztA-Gln-NH2]
- IC50 (read-out: beta-Catenin FP IC50): 776 nM

Compound: CC(=O)N1CCC[C@H]1C(=O)N[C@@H](CC(=O)O)C(=O)N[C@@H](CC(C)(C)C)C(=O)N[C@]1(C)CCCCCCOC(=O)N2CC[C@@](C(=O)N[C@@H](Cc3ccsc3)C(=O)N[C@@H](Cc3csc4ccccc34)C(=O)N[C@@H](CCC(N)=O)C(N)=O)(C2)NC(=O)[C@H](CC(C)C)NC(=O)[C@H](Cc2ccccc2)NC(=O)[C@H](C)NC(=O)[C@H](C)NC(=O)[C@H](CC(=O)O)NC(=O)[C@H](CC(=O)O)NC1=O [I-1993, Ac-Pro-Asp-Npg-R3-Asp-Asp-Ala-Ala-Phe-Leu-PyrS2-3Thi-BztA-Gln-NH2]
- IC50 (read-out: beta-Catenin FP IC50): 728 nM
